Reference: the supplement of paper PMC11451515

System: P12-Ichikawa
Experiment: cell viability relative to DMSO control; higher = less cytotoxic
Conditions: 48 h
In short: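 Viability values are per-plate percentages of DMSO wells, with background from cell-free wells. Library compounds in DMSO were pin-dosed, in an 11-point threefold series from 47 μM to 0.79 nM, onto NOMO1 or SEM (500 cells/well) or P12-Ichikawa (1000 cells/well) leukemia cells in 1536-well plates (5 μl). Those cells had been adapted for at least four passages in each medium, and CellTiter-Glo One luminescence was read after 48 h at 37°C.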

[1] = HPLM + 10% dialyzed FBS, 0.000781 µM
[2] = HPLM + 10% dialyzed FBS, 0.00234 µM
[3] = HPLM + 10% dialyzed FBS, 0.00702 µM
[4] = HPLM + 10% dialyzed FBS, 0.0211 µM
[5] = HPLM + 10% dialyzed FBS, 0.0632 µM
[6] = HPLM + 10% dialyzed FBS, 0.19 µM
[7] = HPLM + 10% dialyzed FBS, 0.569 µM
[8] = HPLM + 10% dialyzed FBS, 1.71 µM
[9] = HPLM + 10% dialyzed FBS, 5.12 µM
[10] = HPLM + 10% dialyzed FBS, 15.4 µM
[11] = HPLM + 10% dialyzed FBS, 46.1 µM
[12] = RPMI 5 mM glucose + 10% FBS, 0.000781 µM
[13] = RPMI 5 mM glucose + 10% FBS, 0.00234 µM
[14] = RPMI 5 mM glucose + 10% FBS, 0.00702 µM
[15] = RPMI 5 mM glucose + 10% FBS, 0.0211 µM
[16] = RPMI 5 mM glucose + 10% FBS, 0.0632 µM
[17] = RPMI 5 mM glucose + 10% FBS, 0.19 µM
[18] = RPMI 5 mM glucose + 10% FBS, 0.569 µM
[19] = RPMI 5 mM glucose + 10% FBS, 1.71 µM
[20] = RPMI 5 mM glucose + 10% FBS, 5.12 µM
[21] = RPMI 5 mM glucose + 10% FBS, 15.4 µM
[22] = RPMI 5 mM glucose + 10% FBS, 46.1 µM
[23] = RPMI 5 mM glucose + 10% dialyzed FBS, 0.000781 µM
[24] = RPMI 5 mM glucose + 10% dialyzed FBS, 0.00234 µM
[25] = RPMI 5 mM glucose + 10% dialyzed FBS, 0.00702 µM
[26] = RPMI 5 mM glucose + 10% dialyzed FBS, 0.0211 µM
[27] = RPMI 5 mM glucose + 10% dialyzed FBS, 0.0632 µM
[28] = RPMI 5 mM glucose + 10% dialyzed FBS, 0.19 µM
[29] = RPMI 5 mM glucose + 10% dialyzed FBS, 0.569 µM
[30] = RPMI 5 mM glucose + 10% dialyzed FBS, 1.71 µM
[31] = RPMI 5 mM glucose + 10% dialyzed FBS, 5.12 µM
[32] = RPMI 5 mM glucose + 10% dialyzed FBS, 15.4 µM
[33] = RPMI 5 mM glucose + 10% dialyzed FBS, 46.1 µM

SMILES | cell viability [1] [%] | cell viability [2] [%] | cell viability [3] [%] | cell viability [4] [%] | cell viability [5] [%] | cell viability [6] [%] | cell viability [7] [%] | cell viability [8] [%] | cell viability [9] [%] | cell viability [10] [%] | cell viability [11] [%] | cell viability [12] [%] | cell viability [13] [%] | cell viability [14] [%] | cell viability [15] [%] | cell viability [16] [%] | cell viability [17] [%] | cell viability [18] [%] | cell viability [19] [%] | cell viability [20] [%] | cell viability [21] [%] | cell viability [22] [%] | cell viability [23] [%] | cell viability [24] [%] | cell viability [25] [%] | cell viability [26] [%] | cell viability [27] [%] | cell viability [28] [%] | cell viability [29] [%] | cell viability [30] [%] | cell viability [31] [%] | cell viability [32] [%] | cell viability [33] [%]
CNc1nc(-c2ccc3c(N)n[nH]c3c2)cc(N2C[C@@H](C(=O)NC3CCCCC3)CC[C@H]2C)n1 | 97.8 | 85.9 | 90.8 | 95.6 | 98.6 | 90.8 | 83.5 | 76.9 | 75.3 | 72.3 | 13.4 | 76.7 | 91.4 | 82.5 | 86.5 | 78.6 | 65.6 | 64 | 57.7 | 54.9 | 51 | 12.8 | 83.5 | 86.6 | 79.9 | 86.5 | 88.4 | 69.9 | 65.5 | 63.5 | 59.8 | 52.1 | 27.8
CCNC(=O)CCC/C=C\C[C@@H]1[C@@H](/C=C/C(O)CCc2ccccc2)[C@@H](O)C[C@@H]1O (some centres undefined) | 117 | 121 | 111 | 111 | 116 | 114 | 111 | 114 | 105 | 106 | 99.7 | 109 | 125 | 109 | 130 | 122 | 109 | 111 | 112 | 109 | 103 | 95 | 121 | 120 | 127 | 111 | 110 | 105 | 116 | 106 | 111 | 97.3 | 86.6
Nc1ccc(C(=O)c2cc3c(ccc4ccccc43)[nH]2)cc1 | 121 | 124 | 122 | 118 | 120 | 109 | 96.4 | 81.4 | 31.1 | 10.6 | 5.96 | 118 | 112 | 115 | 118 | 112 | 108 | 102 | 77.5 | 40.7 | 12.9 | 8.36 | 118 | 115 | 117 | 102 | 116 | 111 | 91 | 74.9 | 56.6 | 13.7 | 5.99
COc1ccc(F)c(F)c1C(=O)c1cnc(NC2CCN([S+](C)(=O)[O-])CC2)nc1N | 111 | 116 | 114 | 115 | 118 | 112 | 87.4 | 77.6 | 86 | 67.6 | 3.92 | 113 | 114 | 126 | 116 | 116 | 117 | 78.3 | 72.2 | 63.7 | 43.2 | 4.54 | 114 | 121 | 116 | 127 | 116 | 113 | 86.8 | 78.2 | 58.4 | 45.9 | 5.54
C[C@@H]1CC[C@@]2(CC[C@]3(C)\C(=C/C[C@@H]4[C@@]5(C)CC[C@H](O)C(C)(C)[C@@H]5CC[C@@]34C)[C@@H]2[C@H]1C)C(O)=O | 112 | 117 | 113 | 109 | 120 | 117 | 109 | 116 | 115 | 125 | 113 | 117 | 112 | 104 | 113 | 118 | 116 | 116 | 116 | 116 | 124 | 115 | 99.7 | 106 | 106 | 112 | 123 | 114 | 115 | 110 | 119 | 109 | 113
Nc1n[nH]c2nnc(-c3c(-c4ccccc4)nn4ccccc34)cc12 | 104 | 117 | 112 | 120 | 126 | 126 | 120 | 118 | 90 | 18.8 | 10.6 | 109 | 116 | 123 | 118 | 134 | 119 | 141 | 138 | 95.3 | 17.7 | 9.91 | 113 | 116 | 128 | 121 | 133 | 134 | 136 | 131 | 132 | 53.6 | 17.9
Cc1cc(Nc2ncc3c(n2)N(C)C(=O)N(c2cc(NC(=O)c4cccc(C(F)(F)F)c4)ccc2C)C3)n(C)n1 | 116 | 114 | 117 | 120 | 119 | 120 | 114 | 90.4 | 79.3 | 55.8 | 7.23 | 106 | 120 | 124 | 123 | 133 | 115 | 105 | 73.5 | 66.5 | 52.5 | 5.53 | 111 | 119 | 116 | 132 | 124 | 122 | 111 | 76.1 | 72.1 | 50.9 | 5.1
CCn1nnc2c(N3CCOCC3)nc(-c3ccc(NC(=O)Nc4ccc(C(=O)N5CCN(C)CC5)cc4)cc3)nc21 | 103 | 109 | 99.8 | 92.6 | 91.6 | 76.3 | 101 | 71 | 76 | 70.2 | 68.9 | 97.5 | 98.4 | 99.4 | 83.6 | 72.3 | 55.3 | 94.3 | 55.2 | 54.9 | 56.9 | 59.4 | 93.7 | 106 | 88.5 | 70.6 | 69.9 | 59.6 | 103 | 56.9 | 58.8 | 54.4 | 50.1
